Reference: US5151502A, “Method for solubilizing membrane receptor proteins” (E. R. Squibb & Sons, Inc., priority 1991, dated 1992)
Values belong to the compound of their own block, whether it stands above or below them.

Columns and labels:
soluble AII receptor = molecular target: T1, soluble AII receptor (Bos taurus, UniProt P25104); assay: [125I]-SI-AII radioligand binding, CHAPS-solubilized SM2-treated BAMM; design: species or system bovine; settings: for Inhibition of [125I]-SI-AII binding (in words): competition experiments
T1 construct: from tissue; host or cells: bovine adrenal microsomal membranes, solubilized with CHAPS and treated with SM2 beads
T1 sequence (P25104 1-359): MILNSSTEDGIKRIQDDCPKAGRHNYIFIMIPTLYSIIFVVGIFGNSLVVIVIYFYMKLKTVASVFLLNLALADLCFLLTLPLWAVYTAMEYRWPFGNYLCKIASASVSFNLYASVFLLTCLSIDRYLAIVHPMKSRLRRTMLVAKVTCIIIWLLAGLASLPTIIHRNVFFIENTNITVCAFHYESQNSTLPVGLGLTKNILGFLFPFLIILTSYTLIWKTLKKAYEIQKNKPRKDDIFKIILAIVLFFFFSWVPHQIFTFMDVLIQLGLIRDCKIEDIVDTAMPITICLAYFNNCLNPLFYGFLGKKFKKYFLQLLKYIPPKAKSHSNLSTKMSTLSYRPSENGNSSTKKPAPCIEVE
Experimental: (§1) All procedures were performed at 4° C. unless otherwise noted. Solubilization of specific binding activity was carried out by incubation of BAMM with 5 mM CHAPS. […] The solubilized membranes were centrifuged at 176,000×g (50,000 rpm in a Beckman 80Ti rotor) for 1 hour. The soluble BAMM preparation was stored at […] Prior to assay, soluble BAMM protein was filtered through a 0.22 μm filter and treated with SM2 beads. SM2 treatment proceeded with the addition of 1.1 g (w/v) of the beads and incubation for 1 to 2 hours with constant rotation. The beads were, removed under air pressure. Residual beads were removed from solution by microcentrifugation at 11,000×g (14,000 rpm.) for 15 minutes.
Assays were conducted in 1.2 ml tubes in a total assay volume of 200 μl. The incubation mixture contained 0.1 to 0.2 nM [^125 I]-SI-AII and incubation buffer (50 mM Tris, pH 7.4 at 4° C., 150 mM sodium chloride, 0.1% bovine serum albumin, 0.24 TI units/ml aprotinin, 0.1 mg/ml 1,10-phenanthroline). The binding reaction was initiated by the addition of 20 to 100 μg of BAMM or soluble BAMM diluted in incubation buffer. Binding proceeded at 37° C. for 2 hours with constant agitation. Reactions were terminated and bound and free radioligand separated by rapid filtration over double-thickness glass-fiber filters which had been presoaked in 0.3% polyethyleneimine in 50 mM Tris (pH 7.4) utilizing a Tomtec™96-well cell harvester set at four pulse washes. Filters were counted in a RIASTAT gamma counter or washed twice, microwave-dried, and counted in a Pharmacia 1205 Beta Plate flatbed scintillation counter in the presence of a dry scintillant (Pharmacia MeltiLex Scintillator Sheets™). Dissociation constants and slope factors were calculated according to Cheng and Prusoff (Biochem. Pharmacol. 22, 3099-3109; 1973) and Hill (J. Physiol. 40, 109-224; 1910), respectively. analysis of saturation binding data was performed using nonlinear regression least-square curve fitting to the nontransformed data or by Scathard transformation (Ann. N.Y.Acad. Sci., 51, 660672;1949).

AII receptor = assay: Recovery of solubilized [125I]-SI-AII binding activity from BAMM; design: species or system bovine; settings: DTNB 0.1 mM added to BAMM before solubilization; means ± standard errors, n = 4
Experimental: as §1
Assays were conducted in 1.2 ml tubes in a total assay volume of 200 μl. […] Filters were counted in a RIASTAT gamma counter or washed twice, microwave-dried, and counted in a Pharmacia 1205 Beta Plate flatbed scintillation counter in the presence of a dry scintillant (Pharmacia MeltiLex Scintillator Sheets™). Dissociation constants and slope factors were calculated according to Cheng and Prusoff (Biochem. Pharmacol. 22, 3099-3109; 1973) and Hill (J. Physiol. 40, 109-224; 1910), respectively. analysis of saturation binding data was performed using nonlinear regression least-square curve fitting to the nontransformed data or by Scathard transformation (Ann. N.Y.Acad. Sci., 51, 660672;1949).

membrane AII receptor = molecular target: T2, membrane AII receptor (Bos taurus, UniProt P25104); assay: [125I]-SI-AII radioligand binding, bovine adrenal microsomal membranes (BAMM)
T2 construct: Aliquots (5 mg/ml) of the bovine adrenal microsomal membranes (BAMM) were stored; from tissue; host or cells: bovine adrenal, microsomal membranes
T2 sequence (P25104 1-359): T1 sequence (P25104 1-359)
Experimental: All the procedures were performed at 4° C. unless otherwise indicated. Bovine adrenals were cleaned of connective tissue and fat and were minced in 10 volumes of homogenization buffer (10 mM Tris, pH 7.4 at 4° C. containing 0.25M sucrose and 1 mM ethylenediaminetetraacetic acid). The minced tissue was homogenized using a Brinkmann polytron homogenizer (five ten second bursts at setting #8). The homogenate was centrifuged at 3,000×g (5,000 rpm) in a Sorvall SS34 rotor) for 10 minutes and the supernatant filtered through 3 layers of cheesecloth. The filtrate was centrifuged at 12,000×g (10,000 rpm in a Sorvall SS34 rotor) for 15 minutes. […]

- inhibition at 5000 µM (soluble AII receptor): ~90%
- IC50 (soluble AII receptor; read-out: DTT concentration giving 50% reduction in ligand activity): 500 to 1000 µM
SMILES: O[C@H](CS)[C@H](O)CS (racemic) [DTT, dithiothreitol]

- Inhibition of [125I]-SI-AII binding (in words) (soluble AII receptor; SM2-treated soluble receptors): negligible
- Ki (soluble AII receptor; SM2-treated soluble receptors, read-out: inhibition constant): > 100 µM
SMILES: Cc1cc(Cn2cnc3c2CC(C(=O)O)N(C(=O)C(c2ccccc2)c2ccccc2)C3)ccc1N (stereo not shown) [PD123177]

- % recovery of solubilized AII receptor (AII receptor): 11.5 ± 1.5%
SMILES: O=C(O)c1cc(SSc2ccc([N+](=O)[O-])c(C(=O)O)c2)ccc1[N+](=O)[O-] [DTNB, dithionitrobenzoic acid]

- Kd (membrane AII receptor): 0.202 ± 0.022 µM
- Slope Factor (membrane AII receptor; BAMM, means ± SEM, n = 3 to 5): 0.91 ± 0.03
- Kd (soluble AII receptor): 2.54 µM
- Inhibition of [125I]-SI-AII binding (in words) (soluble AII receptor; SM2-treated soluble receptors): complete
- Slope Factor (soluble AII receptor; Soluble preparation, means ± SEM, n = 3 to 5): 0.51 ± 0.05
SMILES: CCCCc1nc(Cl)c(CO)n1Cc1ccc(-c2ccccc2-c2nn[nH]n2)cc1 [DuP 753]
